Experimental data reported in US9662328B2, “Targeting human thymidylate kinase induces DNA repair toxicity in malignant tumor cells” (NATIONAL YANG-MING UNIVERSITY, priority 2010, dated 2017).

What was measured:
[1] = biological target: T1, hTMPK (Homo sapiens, UniProt P23919); experiment: In vitro inhibitory activity against human TMPK at 2 μM; format: biochemical; conditions: test compounds at 2 μM concentration
T1 sequence (P23919 1-212): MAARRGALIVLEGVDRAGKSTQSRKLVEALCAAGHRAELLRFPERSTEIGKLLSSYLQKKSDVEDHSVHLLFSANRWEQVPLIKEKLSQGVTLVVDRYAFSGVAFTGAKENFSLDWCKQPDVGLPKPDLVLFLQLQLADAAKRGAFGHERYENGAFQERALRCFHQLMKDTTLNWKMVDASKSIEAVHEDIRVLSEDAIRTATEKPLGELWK
Experimental: (§1) The TMPK reaction was started by adding purified hTMPK in 50 μl of TMPK assay buffer (100 mM Tris-HCl, pH 7.5, 100 mM KCl, 10 mM MgCl2, 50 μM ATP and 100 μM dTMP) in 96 wells plate at 25° C. for 10 min and terminated by adding 200 μl of DTNB (100 μM), followed by transferring 10 μl of reaction solution to a white 96-wellplate containing 90 μl of luciferase assay buffer (50 mM Glycine, 0.5 mM EDTA and 5 mM EDTA, pH 7.0, 0.1 μg of luciferase, 50 μM luciferin and 0.1% BSA). The luminescence was measured with a luminescence counter (Packard).
(§2) All reactions were performed in 96-well plates in an assay volume of 100 μl. The activity of hTMPK was measured at 25° C. using a modified NADH coupled colorimetric assay as described (Agarwal et al., 1978; Miyata et al., 2003; Ostermann et al., 2003), in which purified hTMPK was added to the buffer containing 100 mM Tris-HCl, pH 7.5, 100 mM KCl, 10 mM MgCl2, 0.5 mM phosphoenol pyruvate, 0.25 mM NADH, 5 units of lactate dehydrogenase, 4 units of pyruvate kinase, 1 mM ATP, and 200 μM dTMP. The change of NADH was measured by reading the absorbance at 340 nm. One unit of TMPK activity is defined as the conversion of […] of TMP to TDP per minute.
The in vitro inhibitory activities of test compounds (at 2 μM concentration) against human TMPK are shown in Table 3 and compared with that of YMU1 and YMU2.

[2] = biological target: T1, hTMPK; experiment: IC50 determination by enzymatic assay; format: biochemical
Experimental: as §1, §2
In one embodiment, the IC50 values were determined by enzymatic assay.

Row | Structure (SMILES) | inhibition at 2 µM [1] | IC50 [2]
1 | CC(C)(C)OC(=O)N1CCN(C(=O)Cn2sc3ncccc3c2=O)CC1 [I-a-1, Tert-butyl 4-(2-(3-oxoisothiazolo[5,4-b]pyridin-2(3H)-yl)acetyl)piperazine-1-carboxylate] | 77 ± 4% | 
2 | O=C(Cn1sc2ncccc2c1=O)N1CCN(C(=O)Oc2ccc([N+](=O)[O-])cc2)CC1 [I-a-2, 4-Nitrophenyl 4-(2-(3-oxoisothiazolo[5,4-b]pyridin-2(3H)-yl)acetyl)piperazine-1-carboxylate] | 80 ± 10% | 
3 | Cc1cc(N)nc2sn(CC(=O)N3CCN(C(=O)OC(C)(C)C)CC3)c(=O)c12 [I-a-3, Tert-butyl 4-[(6-amino-4-methyl-3-oxoisothiazolo[5,4-b]pyridin-2(3H)-2-yl)acetyl]piperazine-1-carboxylate] | 16 ± 5% | 
4 | Cc1cc(N)nc2sn(CC(=O)N3CCN(C(=O)Oc4ccc([N+](=O)[O-])cc4)CC3)c(=O)c12 [I-a-4, 4-Nitrophenyl 4-[2-(6-amino-4-methyl-3-oxoisothiazolo[5,4-b]pyridin-2(3H)-yl)acetyl]piperazine-1-carboxylate] | 10 ± 7% | 
5 | Cc1cc(O)nc2sn(CC(=O)N3CCN(C(=O)OC(C)(C)C)CC3)c(=O)c12 [I-a-5, Tert-butyl 4-[(6-hydroxy-4-methyl-3-oxoisothiazolo[5,4-b]pyridin-2(3H)-2-yl)acetyl]piperazine-1-carboxylate] | 93 ± 9% | 500 nM
6 | O=C(NCC(=O)N1CCN(C(=O)Cn2sc3ncccc3c2=O)CC1)Nc1ccccc1 [I-b-1, 1-(2-Oxo-2-(4-(2-(3-oxoisothiazolo[5,4-b]pyridin-2(3H)-yl)acetyl)piperazin-1-yl)ethyl)-3-phenylurea] | 54 ± 7% | 1810 ± 280 nM
7 | Cc1cc(C)c2c(=O)n(CC(=O)N3CCN(C(=O)CNC(=O)Nc4ccccc4)CC3)sc2n1 [I-b-2, 1-(2-(4-(2-(4,6-Dimethyl-3-oxoisothiazolo[5,4-b]pyridin-2(3H)-yl)acetyl)piperazin-1-yl)-2-oxoethyl)-3-phenylurea] | 32 ± 2% | 
8 | Cc1cc(C)c2c(=O)n(CC(=O)N3CCN(C(=O)CI)CC3)sc2n1 [I-b-3, 4,6-Dimethyl-2-[2-(4-(2-iodoacetyl)piperazin-1-yl)-2-oxoethyl]-isothiazolo[5,4-b]pyridin-3(2H)-one] | 29 ± 3% | 
9 | Cc1cc(C)c2c(=O)n(CC(=O)N3CCN(C(=O)Cn4sc5nc(C)cc(C)c5c4=O)CC3)sc2n1 [I-b-4, 1,4-Bis[(3-oxo-4,6-dimethylisothiazolo[5,4-b]pyridin-2-yl)acetyl]piperazine] | 32 ± 2% | 800 nM
10 | O=C(Cn1sc2ncccc2c1=O)N1CCNCC1 [I-c-1, 2-(2-Oxo-2-(piperazin-1-yl)ethyl)isothiazolo[5,4-b]pyridin-3(2H)-one] | 75 ± 11% | 
11 | Cc1cc(C)c2c(=O)n(CC(=O)N3CCNCC3)sc2n1 [I-c-2, 4,6-Dimethyl-2-(2-oxo-2-(piperazin-1-yl)ethyl)isothiazolo[5,4-b]pyridin-3(2H)-one] | 46 ± 2% | 
12 | Cc1cc(N)nc2sn(CC(=O)N3CCNCC3)c(=O)c12 [I-c-3, 6-Amino-4-methyl-2-[2-oxo-2-(piperazin-1-yl)ethyl]isothiazolo[5,4-b]pyridin-3(2H)-one] | 6 ± 5% | 
13 | CCOC(=O)N1CCN(C(=O)Cn2sc3ccccc3c2=O)CC1 [I-d-1, Ethyl 4-(2-(3-oxobenzo[d]isothiazol-2(3H)-yl)acetyl)piperazine-1-carboxylate] | 79 ± 5% | 
14 | CC(C)(C)OC(=O)N1CCN(C(=O)Cn2sc3ccccc3c2=O)CC1 [I-d-2, Tert-butyl 4-(2-(3-oxobenzo[d]isothiazol-2(3H)-yl)acetyl)piperazine-1-carboxylate] | 100 ± 9% | 
15 | O=C(Cn1sc2ccccc2c1=O)N1CCN(C(=O)OCc2ccccc2)CC1 [I-d-3, Benzyl 4-(2-(3-oxobenzo[d]isothiazol-2(3H)-yl)acetyl)piperazine-1-carboxylate] | 54 ± 1% | 
16 | CC(C)(C)OC(=O)N1CCN(C(=O)Cn2sc3cccc(F)c3c2=O)CC1 [I-d-5, Tert-butyl 4-(2-(4-fluoro-3-oxobenzo[d]isothiazol-2(3H)-yl)acetyl)piperazine-1-carboxylate] | 56 ± 4% | 
17 | CC(C)(C)OC(=O)N1CCN(C(=O)Cn2sc3c(F)cccc3c2=O)CC1 [I-d-8, Tert-butyl 4-(2-(7-fluoro-3-oxobenzo[d]isothiazol-2(3H)-yl)acetyl)piperazine-1-carboxylate] | 25 ± 3% | 
18 | CC(C)(C)OC(=O)N1CCN(C(=O)Cn2sc3cc(O[Si](C)(C)C(C)(C)C)ccc3c2=O)CC1 [I-d-17, Tert-butyl 4-(2-(6-((tert-butyldimethylsilyl)oxy)-3-oxobenzo[d]isothiazol-2(3H)-yl)-acetyl)piperazine-1-carboxylate] | 80 ± 4% | 
19 | O=C(CN=C=S)N1CCN(C(=O)Cn2sc3ccccc3c2=O)CC1 [I-e-4, 2-(2-(4-(2-Isothiocyanatoacetyl)piperazin-1-yl)-2-oxoethyl)benzo[d]isothiazol-3(2H)-one] | 63 ± 10% | 

Next, values leading:

Row | inhibition at 2 µM [1] | IC50 [2] | Structure (SMILES)
20 | 55 ± 7% |  | CC(C)(C)OC(=O)N1CCN(C(=O)Cn2sc3cc(Cl)ccc3c2=O)CC1 [I-d-9, Tert-butyl 4-(2-(6-chloro-3-oxobenzo[d]isothiazol-2(3H)-yl)acetyl)piperazine-1-carboxylate]
21 | 56% |  | CC(C)(C)OC(=O)N1CCN(C(=O)Cn2sc3cc(Br)ccc3c2=O)CC1 [I-d-10, Tert-butyl 4-(2-(6-bromo-3-oxobenzo[d]isothiazol-2(3H)-yl)acetyl)piperazine-1-carboxylate]
22 | 86 ± 6% |  | O=C(Cn1sc2cc(Br)ccc2c1=O)N1CCN(C(=O)Oc2ccc([N+](=O)[O-])cc2)CC1 [I-d-11, 4-Nitrophenyl 4-(2-(6-bromo-3-oxobenzo[d]isothiazol-2(3H)-yl)acetyl)piperazine-1-carboxylate]
23 | 84 ± 1% |  | CC(C)(C)OC(=O)N1CCN(C(=O)Cn2sc3cc(C(F)(F)F)ccc3c2=O)CC1 [I-d-12, Tert-butyl4-(2-(3-oxo-6-(trifluoromethyl)benzo[d]isothiazol-2(3H)-yl)acetyl)-piperazine-1-carboxylate]
24 | 39 ± 14% |  | CC(C)(C)OC(=O)N1CCN(C(=O)Cn2sc3cc(N)ccc3c2=O)CC1 [I-d-13, Tert-butyl 4-(2-(6-amino-3-oxobenzo[d]isothiazol-2(3H)-yl)acetyl)piperazine-1-carboxylate]
25 | 66 ± 5% |  | CC(C)(C)OC(=O)N1CCN(C(=O)Cn2sc3cc(N=[N+]=[N-])ccc3c2=O)CC1 [I-d-14, tert-butyl 4-(2-(6-azido-3-oxobenzo[d]isothiazol-2(3H)-yl)acetyl)piperazine-1-carboxylate]
26 | 51 ± 9% |  | COc1ccc2c(=O)n(CC(=O)N3CCN(C(=O)OC(C)(C)C)CC3)sc2c1 [I-d-15, Tert-butyl 4-(2-(6-methoxy-3-oxobenzo[d]isothiazol-2(3H)-yl)acetyl)piperazine-1-carboxylate]
27 | 22 ± 12% |  | CC(C)(C)OC(=O)N1CCN(C(=O)Cn2sc3cc(O)ccc3c2=O)CC1 [I-d-16, Tert-butyl 4-(2-(6-hydroxy-3-oxobenzo[d]isothiazol-2(3H)-yl)acetyl)piperazine-1-carboxylate]
28 | 78 ± 7% |  | CCCCCCCCc1cn(-c2ccc3c(=O)n(CC(=O)N4CCN(C(=O)OC(C)(C)C)CC4)sc3c2)nn1 [I-d-18, Tert-butyl 4-(2-(6-(4-octyl-1H-1,2,3-triazol-1-yl)-3-oxobenzo[d]isothiazol-2(3H)-yl)acetyl)piperazine-1-carboxylate]
29 | 31 ± 5% |  | O=C(CI)N1CCN(C(=O)Cn2sc3ccccc3c2=O)CC1 [I-e-1, 2-[2-(4-(2-Iodoacetyl)piperazin-1-yl)-2-oxoethyl]benzo[d]isothiazol-3(2H)-one]
30 | 55 ± 7% |  | COc1ccc(NC(=O)NCC(=O)N2CCN(C(=O)Cn3sc4ccccc4c3=O)CC2)cc1 [I-e-6, 1-(4-Methoxyphenyl)-3-(2-oxo-2-(4-(2-(3-oxobenzo[d]isothiazol-2(3H)-yl)acetyl)piperazin-1-yl)ethyl)urea]
31 | 50 ± 5% |  | CCCCNC(=O)NCC(=O)N1CCN(C(=O)Cn2sc3ccccc3c2=O)CC1 [I-e-7, Butyl-3-(2-oxo-2-(4-(2-(3-oxobenzo[d]isothiazol-2(3H)-yl)acetyl)piperazin-1-yl)ethyl)urea]
32 | 34 ± 2% |  | O=C(Cn1sc2ccccc2c1=O)N1CCNCC1 [I-f-1, 2-(2-Oxo-2-(piperazin-1-yl)ethyl)benzo[d]isothiazol-3(2H)-one]
33 | 38 ± 14% |  | O=C(Cn1sc2cc(Br)ccc2c1=O)N1CCNCC1 [I-f-2, 6-Bromo-2-(2-oxo-2-(piperazin-1-yl)ethyl)benzo[d]isothiazol-3(2H)-one]
34 | 46 ± 2% |  | Cc1cc(C)c2c(=O)n(CC(=O)N3CCN(C(=O)OC(C)(C)C)CC3)sc2n1 [YMU2, reference compound]
